Literature values as cited in patent publication EP0211258A2, “Microemulsion compositions” (ABBOTT LABORATORIES, priority 1985, dated 1987).

Conditions: commonly employed aqueous solutions, 2.5%, w/v

CCCC(C)C1(CC)C(=O)NC(=S)NC1=O (stereo not shown) [thiopental sodium]
pH: 10.5
